# According to patent US20050090471A1, “Inhibitors of cyclin-dependent kinases, compositions and uses related thereto” (GPC Biotech, Inc, priority 2001, published 2005):
# Columns and labels:
# arrested IMR90 cells = assay: Arrested cell assay (serum starvation), IMR90; format: cell-based, human; design: unit not given here; settings: serum-starved arrested cells; unit not given
# Experimental: (§1) Cyclin-dependent kinase (Cdk) activity is required to promote the progression of cells through distinct phases of the cell division cycle. The proliferation of normal, non-transformed, cells in culture requires the presence of growth factors, the removal of which, through serum deprivation, leads to a loss of Cdlc activity and consequent exit from the cell cycle as cells enter the quiescent phase, Go.
# IMR90 cells were plated in triplicate for each compound concentration to be tested in MEM-α media containing 10% fetal calf serum at a density of either 2,000 or 20,000 cells per well in 24-well dishes and incubated overnight at 37° C., 5% CO2. The media was removed from the 20,000 cell-per-well dish, cells were washed once with serum-free media, and serum-fiee media was placed on cells. The plates containing cells both in the presence and absence of serum were incubated for 3 additional days.
# (§2) To ensure that the cells had indeed exited the cell cyde upon serum withdrawal, the percentage of BrdU positive cells, indicative of those progressing through S phase, was determined in each experiment. For the purpose of this experiment, cellular viability was evaluated simultaneously with the use of SNARF-1, a fluorescent substrate of intracellular esterases which are only active in viable cells. Together, the evaluation of BrdU incorporation and SNARF-1 cleavage by flow cytometry provided an assessment of the viability of arrested cells on a single cell basis. For this analysis, the cells were stained with SNARF-1 as follows and then prepared for determination of BrdU incorporation as described above.
# (§3) HCT-116 and IMR90 cells were plated at the density described below in T25 flasks in serum-containing media (RPMI-1640 or MEM-a with 10% FCS, respectively). After 24 hours of growth, the media was removed and, after washing the cells, replaced with serum-free media. • HCT-116+FCS 5,000 cells • HCT-116−FCS 100,000 cells • IMR90+FCS 100,000 cells • IMR90−FCS 200,000 cells
# (§4) The IMR90 cells were grown for an additional 3 days and the HCT-116 cells were grown for an additional 6 days before pulsing with BrdU. A 50 μg aliquot of SNARF-1 (Molecular Probes catalog #C1272) was dissolved in 50 μl DMSO at room temperature for 10 minutes and then diluted into 10 ml PBS. The SNARF-1 was further diluted 1:64,000 before 200 μl was added to each tube of cells which had been cultured in the presence or absence of serum and pulsed with BrdU for 20 hours. The cells were incubated at 37° C. for 30 minutes and then washed with 3 ml of PBS.
# (§5) These cells were then fixed and prepared for the measurement of BrdU incorporation as described above. The percentage of viable (FL-2) and BrdU positive (FL-1) cells was determined on a FACScan flow cytometer.
# ADR-res = assay: NCI panel (SRB assay), ADR-res cell line; format: cell-based, human; settings: 48 hours incubation with compound, unit not given
# Source text: The evaluation of compounds at the National Cancer Institute in their panel of 60 cell lines provides a wealth of information regarding efficacy in a wide range of tumor types and genetic backgrounds. Included within this panel are cell lines derived from leukemia, melanoma and cancers of the lung, colon, brain, ovary, breast, prostate and kidney. Use of this panel provides a measure of the efficacy of compounds in cells with alterations in many genes that are associated with neoplastic transformation including p53 and Her2/Neu as well as those involved in metabolism and those which confer multi-drug resistance. The data generated in these cell lines with the protocol described below can be used to evaluate the activity of compounds.
# Cells were grown in RPMI-1640 10% FCS and plated in 96 well micro-titer plates at densities ranging from 5,000 to 40,000 cells/well. The plates were incubated for 24 hours at 37° C., 5% CO2 for 24 hours. Media containing twice the desired final concentration of the compound (5 doses spanning 4 logs) was prepared and 100 μl was added to each well containing 100 μl media plus cells to yield the desired final concentration. The plates were then incubated for an additional 48 hours.
# The effect of the compound on cellular viability was determined with the Sulforhodamine B (SRB) assay which measures total protein. Cells were fixed with cold TCA to a fmal concentration of 10% and incubated at 4° C. for 60 minutes. The supernatant was discarded and the plates were washed five times with water and air-dried. SRB solution at […] in 1% acetic acid was added to each well and the plates were incubated for 10 minutes at room temperature. The plates were washed five times with 1% acetic acid and air-dried. The bound stain was solubilized with 10 mM trizma base and the absorbance was read on a plate reader at […].
# IMR90 = assay: Calcein AM viability assay, IMR90; format: cell-based; settings: IMR-90, normal human fibroblast, 72-hours incubation
# Experimental: The potency of Cdk inhibitors, as measured by loss of cellular viability, was determined with the Calcein AM assay (Molecular Probes). Calcein AM is a substrate of intracellular esterases, which is cleaved only in viable cells to generate a fluorescent product that can be quantified with a fluorescent plate reader. The fluorescent signal is proportional to the number of viable cells, and thus loss of signal in response to the exposure of cells to Cdk inhibitors correlates with a loss of viability. This assay distinguishes cell cycle arrest from loss of viability and is thus well suited for the evaluation of Cdk inhibitors.
# Cellular IC50's were determined in the human colorectal carcinoma cell line, HCT-116, and the normal human fibroblast, IMR90. Protein adjusted IC50's were also determined in HCT-116. Results are presented in Table 3 below (HCT-116 (viability/protein adjusted) and IMR-90).
# HCT-116 or IMR90 cells were recovered from sub-confluent plates by trypsinization and 1,000 or 4,000 cells, respectively, were plated in 24-well dishes and incubated overnight at 37° C., 5% CO2. HCT-116 cells were cultured in RPMI-1640, 10% FCS, and IMR90 cells were cultured in Minimum Essential Medium-alpha, 10% FCS. After overnight incubation to allow.adlierence, the media was aspirated from each well and replaced with media containing a test compound at a concentration from 0 to 250 nM, spanning a total of 7 doses. The plates were returned to the incubator and cultured for an additional 3 days. […] After 72-hours incubation with the test compound, the cells were washed twice with 1×PBS, talking special care to remove all residual buffer.
# A 5 μM Calcein AM. solution was prepared by dissolving a 50 μg aliquot of Calcein (Molecular Probes catalog # C3100) in 50 μl DMSO. After the Calcein had completely dissolved (10 minutes at room temperature), it was diluted into 10 ml PBS. Calcein/PBS (0.5 ml) was added to each well. The plates were incubated for 75 minutes at 37° C. (protected from light) and the fluorescent signal was read on a fluorescent plate reader (excitation 485/20 and emission 530/25).
# arrested HCT-116 cells = assay: Arrested cell assay (serum starvation), HCT-116; format: cell-based, human; design: unit not given here; settings: serum-starved arrested cells; unit not given
# Experimental: as §1
# HCT-116 cells were plated in triplicate for each compound concentration to be tested in RPMI 1640 media containing 10% fetal calf serum at a density of either 200 or 2,000 cells per well in 24 well dishes, and incubated overnight at 37° C., 5% CO2. The media from the plate containing 2,000 cells per well was removed, cells were washed once with serum free media and 1 ml of serum free media was placed on cells. Tle plates containing cells both in the presence and absence of serum were incubated for 6 additional days.
# as §2, §3, §4, §5
SMILES,Arrested cell IMR90 (arrested IMR90 cells),NCI panel ADR-res (ADR-res),IC50 (IMR90) [nM],Arrested cell HCT (arrested HCT-116 cells)
CC(C)c1nn(-c2c(Cl)cccc2Cl)c2nc(Cc3ccc(O)c(CN4CCN(C(C)C)CC4)c3)[nH]c(=O)c12.Cl.Cl [Compound C],>1.0,<0.1,< 100,<0.01
Cl.Cl.Cl.O=C(Nc1cccc2c1C(=O)c1c-2n[nH]c1-c1ccc(OCCN2CCCC2)cc1)NN1CCOCC1 [Compound I],>1.0,<1,< 100,<0.1
CC(C)N1CCN(CCOc2ccc(-c3[nH]nc4c3C(=O)c3c(NC(=O)NN5CCOCC5)cccc3-4)cc2)CC1.Cl.Cl.Cl [E],>0.1,<1,< 100,<0.1
CN1CCN(NC(=O)Nc2cccc3c2C(=O)c2c-3n[nH]c2-c2ccc(OCCN3CCCC3)cc2)CC1.Cl.Cl.Cl [F],>1.0,<1,< 100,<0.1
CCCN(CCOc1ccc(-c2[nH]nc3c2C(=O)c2c(NC(=O)NN4CCOCC4)cccc2-3)cc1)CC1CC1.Cl.Cl.Cl [G],>0.1,<1,< 100,<0.1
Cl.Cl.Cl.O=C(Nc1cccc2c1C(=O)c1c-2n[nH]c1-c1ccc(OCCN(CCO)CCO)cc1)NN1CCOCC1 [H],>1.0,>10,< 100,<0.1
CC(C)N1CCN(Cc2cc(-c3[nH]nc4c3C(=O)c3c(NC(=O)NN5CCOCC5)cccc3-4)ccc2O)CC1.Cl.Cl.Cl.Cl [K],>1.0,<10,> 100,<0.01
CN1CCN(NC(=O)Nc2cccc3c2C(=O)c2c-3n[nH]c2-c2ccc(OCCN3CCOCC3)cc2)CC1.Cl.Cl [Q],>0.1,<10,< 100,<0.1
